# Reference: US20260242419A1, “A CYCLIC PEPTIDE FOR TRAPPING INTERLEUKIN-1 BETA” (Merck Sharp & Dohme LLC, priority 2023, published 2026)
# Starred links: 1 amine or outer side, 2 acyl side, 3 side chain; linkers in the order of their positions; H or OH if unused. Non-standard residues stand in square brackets, D forms with d. Residues, ends and D or L forms follow the SMILES beside them. Phe(4-(cis-4-COOH-cHex)) = N[C@@H](Cc1ccc([C@H]2CC[C@@H](C(=O)O)CC2)cc1)C(=O)O; Ala(piperidin-4-yl) = O=C([C@H](CC1CCN([*:3])CC1)N[*:1])[*:2]; Trp(βS-Me,4-F) = C[C@@H](c1c[nH]c2cccc(F)c12)[C@H](N)C(=O)O; Bip(4'-COOH) = N[C@@H](Cc1ccc(-c2ccc(C(=O)O)cc2)cc1)C(=O)O; dPro(4R-Bzl(4-F)) = O=C(O)[C@H]1C[C@@H](Cc2ccc(F)cc2)CN1; Ala(morpholin-4-yl) = N[C@@H](CN1CCOCC1)C(=O)O; Ala(piperazin-1-yl) = N[C@@H](CN1CCNCC1)C(=O)O; Ala(pyrimidin-5-yl) = N[C@@H](Cc1cncnc1)C(=O)O; Phe(4-COOH) = N[C@@H](Cc1ccc(C(=O)O)cc1)C(=O)O; Ala(4-Pyridazinyl) = N[C@@H](Cc1ccnnc1)C(=O)O; Ala(2-pyrazinyl) = N[C@@H](Cc1cnccn1)C(=O)O; Pro(cis-4-F) = O=C(O)[C@@H]1C[C@H](F)CN1; Ala(4-THP) = N[C@@H](CC1CCOCC1)C(=O)O; 4Pal = N[C@@H](Cc1ccncc1)C(=O)O; Dab = NCC[C@H](N)C(=O)O; Aib = CC(C)(N)C(=O)O
# Target: T1, IL-1β (Homo sapiens, UniProt P01584)
# T1 construct: purchased BioLegend 579404
# Experiment: IL-6 assay in MRC5 cells: inhibition of IL-1β induced IL-6 secretion (AlphaLISA)
# Format: cell-based
# Conditions: inhibition of IL-1β induced IL-6 secretion in MRC5 cells; read-out: MRC5 IC50
# Method in brief: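 Compound was pre-incubated 1 h at ambient temperature with recombinant human IL-1β at 2λ EC80 before adding human lung fibroblast MRC5 cells (3000/well) in EMEM with 0.025% BSA. After overnight culture at 37 °C, 5% CO2, secreted IL-6 in conditioned medium was measured by AlphaLISA; IC50 from 4-parameter logistic fits.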
# T1 sequence (P01584 117-269): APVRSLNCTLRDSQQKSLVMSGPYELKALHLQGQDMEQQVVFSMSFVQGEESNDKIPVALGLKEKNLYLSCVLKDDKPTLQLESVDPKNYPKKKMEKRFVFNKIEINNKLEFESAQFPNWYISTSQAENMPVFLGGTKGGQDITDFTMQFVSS
row,SMILES,IC50 [nM]
1,"C[C@@H](c1c[nH]c2cccc(F)c12)[C@@H]1NC(=O)[C@@H]2C[C@H](F)CN2C(=O)CNC(=O)[C@H](Cc2ccc(C(=O)O)cc2)NC(=O)[C@H](Cc2ccncc2)NC(=O)[C@H](Cc2ccc(-c3ccc(C(=O)O)cc3)cc2)NC(=O)[C@H]2C[C@@H](Cc3ccc(F)cc3)CN2C(=O)CNC(=O)[C@H](CCN)NC(=O)[C@H](CCC(N)=O)NC(=O)[C@H](Cc2ccnnc2)NC(=O)C(C)(C)NC(=O)[C@H](Cc2c[nH]c3ccccc23)NC(=O)[C@H](CCC(=O)O)NC(=O)C(C)(C)NC1=O [Example 115] (cyclo([Bip(4'-COOH)][4Pal][Phe(4-COOH)]G[Pro(cis-4-F)][Trp(βS-Me,4-F)][Aib]EW[Aib][Ala(4-Pyridazinyl)]Q[Dab]G[dPro(4R-Bzl(4-F))]))",0.023
2,"C[C@@H](c1c[nH]c2cccc(F)c12)[C@@H]1NC(=O)[C@@H]2C[C@H](F)CN2C(=O)CNC(=O)[C@H](Cc2ccc(C(=O)O)cc2)NC(=O)[C@H](Cc2ccnnc2)NC(=O)[C@H](Cc2ccc(-c3ccc(C(=O)O)cc3)cc2)NC(=O)[C@H]2C[C@@H](Cc3ccc(F)cc3)CN2C(=O)CNC(=O)[C@H](CCN)NC(=O)[C@H](CCC(N)=O)NC(=O)[C@H](Cc2cncnc2)NC(=O)C(C)(C)NC(=O)[C@H](Cc2c[nH]c3ccccc23)NC(=O)[C@H](CCC(=O)O)NC(=O)C(C)(C)NC1=O [Example 116] (cyclo([Bip(4'-COOH)][Ala(4-Pyridazinyl)][Phe(4-COOH)]G[Pro(cis-4-F)][Trp(βS-Me,4-F)][Aib]EW[Aib][Ala(pyrimidin-5-yl)]Q[Dab]G[dPro(4R-Bzl(4-F))]))",0.04
3,"C[C@@H](c1c[nH]c2cccc(F)c12)[C@@H]1NC(=O)[C@@H]2C[C@H](F)CN2C(=O)CNC(=O)[C@H](Cc2ccc(C(=O)O)cc2)NC(=O)[C@H](Cc2ccncc2)NC(=O)[C@H](Cc2ccc([C@H]3CC[C@@H](C(=O)O)CC3)cc2)NC(=O)[C@H]2C[C@@H](Cc3ccc(F)cc3)CN2C(=O)CNC(=O)[C@H](CCN)NC(=O)[C@H](CCC(N)=O)NC(=O)[C@H](Cc2cnccn2)NC(=O)C(C)(C)NC(=O)[C@H](Cc2c[nH]c3ccccc23)NC(=O)[C@H](CCC(=O)O)NC(=O)C(C)(C)NC1=O [Example 117] (cyclo([Phe(4-(cis-4-COOH-cHex))][4Pal][Phe(4-COOH)]G[Pro(cis-4-F)][Trp(βS-Me,4-F)][Aib]EW[Aib][Ala(2-pyrazinyl)]Q[Dab]G[dPro(4R-Bzl(4-F))]))",0.027
4,"C[C@@H](c1c[nH]c2cccc(F)c12)[C@@H]1NC(=O)[C@@H]2C[C@H](F)CN2C(=O)CNC(=O)[C@H](Cc2ccc(C(=O)O)cc2)NC(=O)[C@H](Cc2ccncc2)NC(=O)[C@H](Cc2ccc(-c3ccc(C(=O)O)cc3)cc2)NC(=O)[C@H]2C[C@@H](Cc3ccc(F)cc3)CN2C(=O)CNC(=O)[C@H](CCN)NC(=O)[C@H](CCC(N)=O)NC(=O)[C@H](CC2CCOCC2)NC(=O)C(C)(C)NC(=O)[C@H](Cc2c[nH]c3ccccc23)NC(=O)[C@H](CCC(=O)O)NC(=O)C(C)(C)NC1=O [Example 118] (cyclo([Bip(4'-COOH)][4Pal][Phe(4-COOH)]G[Pro(cis-4-F)][Trp(βS-Me,4-F)][Aib]EW[Aib][Ala(4-THP)]Q[Dab]G[dPro(4R-Bzl(4-F))]))",0.016
5,"C[C@@H](c1c[nH]c2cccc(F)c12)[C@@H]1NC(=O)[C@@H]2C[C@H](F)CN2C(=O)CNC(=O)[C@H](Cc2ccc(C(=O)O)cc2)NC(=O)[C@H](Cc2ccncc2)NC(=O)[C@H](Cc2ccc(-c3ccc(C(=O)O)cc3)cc2)NC(=O)[C@H]2C[C@@H](Cc3ccc(F)cc3)CN2C(=O)CNC(=O)[C@H](CCN)NC(=O)[C@H](CCC(N)=O)NC(=O)[C@H](CC2CCNCC2)NC(=O)C(C)(C)NC(=O)[C@H](Cc2c[nH]c3ccccc23)NC(=O)[C@H](CCC(=O)O)NC(=O)C(C)(C)NC1=O [Example 119] (cyclo([Bip(4'-COOH)][4Pal][Phe(4-COOH)]G[Pro(cis-4-F)][Trp(βS-Me,4-F)][Aib]EW[Aib][Ala(piperidin-4-yl)]Q[Dab]G[dPro(4R-Bzl(4-F))]))",0.016
6,"C[C@@H](c1c[nH]c2cccc(F)c12)[C@@H]1NC(=O)[C@@H]2C[C@H](F)CN2C(=O)CNC(=O)[C@H](Cc2ccc(C(=O)O)cc2)NC(=O)[C@H](Cc2ccncc2)NC(=O)[C@H](Cc2ccc(-c3ccc(C(=O)O)cc3)cc2)NC(=O)[C@H]2C[C@@H](Cc3ccc(F)cc3)CN2C(=O)CNC(=O)[C@H](CCN)NC(=O)[C@H](CCC(N)=O)NC(=O)[C@H](CN2CCNCC2)NC(=O)C(C)(C)NC(=O)[C@H](Cc2c[nH]c3ccccc23)NC(=O)[C@H](CCC(=O)O)NC(=O)C(C)(C)NC1=O [Example 120] (cyclo([Bip(4'-COOH)][4Pal][Phe(4-COOH)]G[Pro(cis-4-F)][Trp(βS-Me,4-F)][Aib]EW[Aib][Ala(piperazin-1-yl)]Q[Dab]G[dPro(4R-Bzl(4-F))]))",0.014
7,"C[C@@H](c1c[nH]c2cccc(F)c12)[C@@H]1NC(=O)[C@@H]2C[C@H](F)CN2C(=O)CNC(=O)[C@H](Cc2ccc(C(=O)O)cc2)NC(=O)[C@H](Cc2ccncc2)NC(=O)[C@H](Cc2ccc(-c3ccc(C(=O)O)cc3)cc2)NC(=O)[C@H]2C[C@@H](Cc3ccc(F)cc3)CN2C(=O)CNC(=O)[C@H](CO)NC(=O)[C@H](CCC(N)=O)NC(=O)[C@H](CC2CCNCC2)NC(=O)C(C)(C)NC(=O)[C@H](Cc2c[nH]c3ccccc23)NC(=O)[C@H](CCC(=O)O)NC(=O)C(C)(C)NC1=O [Example 121] (cyclo([Bip(4'-COOH)][4Pal][Phe(4-COOH)]G[Pro(cis-4-F)][Trp(βS-Me,4-F)][Aib]EW[Aib][Ala(piperidin-4-yl)]QSG[dPro(4R-Bzl(4-F))]))",0.029
8,"C[C@@H](c1c[nH]c2cccc(F)c12)[C@@H]1NC(=O)[C@@H]2C[C@H](F)CN2C(=O)CNC(=O)[C@H](Cc2ccc(C(=O)O)cc2)NC(=O)[C@H](Cc2ccncc2)NC(=O)[C@H](Cc2ccc(-c3ccc(C(=O)O)cc3)cc2)NC(=O)[C@H]2C[C@@H](Cc3ccc(F)cc3)CN2C(=O)CNC(=O)[C@H](CO)NC(=O)[C@H](CCC(N)=O)NC(=O)[C@H](CN2CCNCC2)NC(=O)C(C)(C)NC(=O)[C@H](Cc2c[nH]c3ccccc23)NC(=O)[C@H](CCC(=O)O)NC(=O)C(C)(C)NC1=O [Example 122] (cyclo([Bip(4'-COOH)][4Pal][Phe(4-COOH)]G[Pro(cis-4-F)][Trp(βS-Me,4-F)][Aib]EW[Aib][Ala(piperazin-1-yl)]QSG[dPro(4R-Bzl(4-F))]))",0.019
9,"C[C@@H](c1c[nH]c2cccc(F)c12)[C@@H]1NC(=O)[C@@H]2C[C@H](F)CN2C(=O)CNC(=O)[C@H](Cc2ccc(C(=O)O)cc2)NC(=O)[C@H](Cc2ccncc2)NC(=O)[C@H](Cc2ccc(-c3ccc(C(=O)O)cc3)cc2)NC(=O)[C@H]2C[C@@H](Cc3ccc(F)cc3)CN2C(=O)CNC(=O)[C@H](CO)NC(=O)[C@H](CCC(N)=O)NC(=O)[C@H](CN2CCOCC2)NC(=O)C(C)(C)NC(=O)[C@H](Cc2c[nH]c3ccccc23)NC(=O)[C@H](CCC(=O)O)NC(=O)C(C)(C)NC1=O [Example 125] (cyclo([4Pal][Phe(4-COOH)]G[Pro(cis-4-F)][Trp(βS-Me,4-F)][Aib]EW[Aib][Ala(morpholin-4-yl)]QSG[dPro(4R-Bzl(4-F))][Bip(4'-COOH)]))",0.041
